Assay results from the OligoGym collection.
Values joined by “and” are separate entries in the source; they are usually repeats but may differ in a detail not shown here. Equal values may be shown once. After the bases stand the sugars from the 5' end (letter, count) and the backbone: PS all phosphorothioate, else s phosphorothioate and o phosphodiester by linkage. Methylation of C is not given here. e = 2'-O-(2-methoxyethyl) (MOE); k = constrained ethyl (cEt); d = 2'-deoxy (DNA)

Molecular target: IRF4
Conditions: ASO

Row | Sequence | target mRNA inhibition (SK-MEL-28, 4 µM) | target mRNA inhibition (MM.1R, 1 µM) | other results
1 | GGGCAATGGAGTCTCG (sugars k3 d10 k3, PS) | 24% |  | 
2 | TTGGTTGGCTGGTCTT (sugars k2 d9 e3 k2, PS) |  | 50% | 
3 | GCTAACTTACAGGACT (sugars k3 d10 k3, PS) |  | -8% | 
4 | GTTGGCTGGTCTTTGT (sugars k3 d10 k3, PS) |  | 63% | 
5 | TCCTCTGGCCATTGTC (sugars k3 d10 k3, PS) | 41% |  | 
6 | TTAGAGAGGAGAATTT (sugars k3 d10 k3, PS) | 35% |  | 
7 | CAAGAAGGATGGGACC (sugars k3 d10 k3, PS) | 25% |  | 
8 | TGGGATTATATACTGG (sugars kdddddddddkekeke, PS) |  | 40% | 
9 | CCGCGAAGGCTCCTAC (sugars k3 d10 k3, PS) | 14% |  | 
10 | CAGTTGTAAATGAGTC (sugars kdddddddddkekeke, PS) |  | 62% | target mRNA inhibition (H929, 0.00067 µM): 9%; target mRNA inhibition (H929, 0.002 µM): 26%; target mRNA inhibition (H929, 0.00667 µM): 39%; target mRNA inhibition (H929, 0.02 µM): 48%; target mRNA inhibition (H929, 0.04 µM): 27%; target mRNA inhibition (KMS11, 0.2 µM): 62% and 74%; target mRNA inhibition (MM.1R, 0.074 µM): 20%; target mRNA inhibition (MM.1R, 0.222 µM): 36%; target mRNA inhibition (MM.1R, 0.666 µM): 59%; target mRNA inhibition (MM.1R, 2 µM): 79%
11 | CGTGATCTGAGACTAC (sugars k3 d10 k3, PS) |  | 25% and 36% | 
12 | ACAGGACCTGGTCCAG (sugars k3 d10 k3, PS) | 35% |  | 
13 | ATAATATAGTTGTCTG (sugars k3 d10 k3, PS) | 35% |  | 
14 | GATGTATACATCACTG (sugars k3 d10 k3, PS) | 70% |  | 
15 | GTAAATATCCTGTAGT (sugars k3 d10 k3, PS) | 33% |  | 
16 | AGGCTCGGGCAGAGCC (sugars k3 d10 k3, PS) | 1% |  | 
17 | GACATTGGTACGGGAT (sugars k3 d10 k3, PS) | 36% |  | 
18 | GTGTGCTTGCCAAGCC (sugars kkdddddddddkekek, PS) |  | 41% and 39% | 
19 | CCCCGAGCTGCACACG (sugars k3 d10 k3, PS) |  | -5% | 
20 | ATGACATGCTTTGTCC (sugars k3 d10 k3, PS) | 46% |  | 
21 | TATTTATGAGCTTCCA (sugars k3 d10 k3, PS) |  | 21% | 
22 | GGACATATTTGCTTTG (sugars k3 d10 k3, PS) | 32% |  | 
23 | GGGCGACGACAGCTGC (sugars k3 d10 k3, PS) | 32% |  | 

Row | Sequence | target mRNA inhibition (SK-MEL-28, 4 µM) | target mRNA inhibition (MM.1R, 1 µM) | other results
24 | GCAAAACCCCTCAAGC (sugars k3 d10 k3, PS) | 20% |  | 
25 | TTTCTAATGGTGCTCC (sugars k3 d10 k3, PS) |  | 4% | 
26 | CTGTAACAGGCTATCA (sugars k3 d10 k3, PS) | 44% |  | 
27 | GGCACATCAATGTTTT (sugars k2 d9 e3 k2, PS) |  | 22% and 36% | 
28 | ATGTAAAGTCTGCTGA (sugars k3 d10 k3, PS) |  | 20% | 
29 | GTCTGGCTAGCAGAGG (sugars k4 d8 k4, PS) | 9% |  | 
30 | TGGGACATTGGTACGG (sugars k3 d10 k3, PS) | 69% |  | target mRNA inhibition (MM.1R, 0.074 µM): 4%; target mRNA inhibition (MM.1R, 0.222 µM): 2%; target mRNA inhibition (MM.1R, 0.666 µM): 13%; target mRNA inhibition (MM.1R, 2 µM): 34%
31 | CCCTTAGGAACGAAGA (sugars k3 d10 k3, PS) | -6% |  | 
32 | TCCAGGAAAGGCCAAG (sugars k3 d10 k3, PS) | 49% |  | 
33 | GACACTTTTAGAGAGG (sugars k2 d9 e3 k2, PS) |  | 25% | 
34 | TATCATCCGAAAAGAC (sugars k3 d10 k3, PS) |  | 3% | 
35 | GTGTGCTTGCCAAGCC (sugars k3 d10 k3, PS) |  | 66% and 63% | target mRNA inhibition (MM.1R, 0.0625 µM): 35%; target mRNA inhibition (MM.1R, 0.25 µM): 23%; target mRNA inhibition (MM.1R, 4 µM): 87%
36 | ACACTTTTAGAGAGGA (sugars kkdddddddddkdkdk, PS) |  | 3% | 
37 | TGGGATTATATACTGG (sugars kkdddddddddekeke, PS) |  | 63% | 
38 | AAGCTTGATAAAGGCT (sugars kkddddddddddkeke, PS) |  | -18% | 
39 | CTCCAAAGCATAGAGT (sugars k3 d10 k3, PS) | 23% |  | 
40 | ATGGAAATACGACAAC (sugars k3 d10 k3, PS) | 35% |  | 
41 | CTAGAAAGAGCTGGTA (sugars k3 d10 k3, PS) | 15% |  | 
42 | TTGCATCTATAAGATG (sugars k3 d10 k3, PS) | 31% |  | 
43 | TCAAATCTTCAACAGC (sugars k3 d10 k3, PS) | 76% |  | 
44 | TTGCATAGGCATCCTT (sugars k3 d10 k3, PS) | 47% |  | 
45 | AGAAACCCTCATCACC (sugars k3 d10 k3, PS) | -5% |  | 
